Results on seven compounds are retold here after patent US5990136A, “Isoxazoline derivatives useful as antimicrobials” (Pharmacia & Upjohn Company, priority 1997, dated 1999).

Structures are written as SMILES. Values after ≈ are worked out from the molar mass of the structure shown.

Assay [1] deals with Streptococcus Pneumoniae UC ® No. 9912. The experiment in a line: In vitro antimicrobial activity (MIC, agar dilution, Mueller Hinton agar), S. pneumoniae UC 9912. It counts as cell-based. The following applies: UC9912, 35° C., 18 hours, read-out: Minimum inhibitory concentration (MIC), S. p. 9912. The method, then:
(§1) Antimicrobial activity was tested in vitro using the procedure described in National Committee for Clinical Laboratory Standards. Methods for dilution antimicrobial susceptibility tests for bacteria that grow aerobically are disclosed in the third edition of Approved Standard, NCCLS Document M7-A3, Villanova, Pa., 1993. Minimum inhibitory concentration (MIC) values were determined by an agar dilution method (1) in which the test medium was Mueller Hinton agar (MHA; Difco Laboratories, Detroit, Mich.) supplemented with 1% Supplement C (Difco). Serial two-fold dilutions of each compound were prepared using 1.0 ml volumes of sterile distilled water. To each 1.0 ml aliquot was added 9.0 ml of molten agar medium. The drug-supplemented agar was mixed, poured into 15×100 mm petri dishes, and allowed to solidify and dry at room temperature prior to inoculation. The test cultures were grown aerobically overnight at 35° C. on MHA; streptococcal strains were grown on Trypticase Soy Blood Agar Base EH (Difco) supplemented with 5% defibrinated sheep blood (BBL, Becton Dickinson Company, Cockeysville, Md.). Colonies were harvested with a sterile swab, and cell suspensions were prepared in Trypticase Soy Broth (TSB; Becton Dickinson Company) to equal the turbidity of a 0.5 McFarland standard. A 1:19 dilution of the suspension was made in TSB; this diluted suspension constituted the inoculum for the assay. The plates containing the drug-supplemented agar were inoculated with a 0.001 ml drop of the cell suspensions using a Steers replicator (Melrose Machine Shop, Woodlyn, Pa.), yielding approximately 10^4 -10^5 cells per spot. The plates were incubated aerobically at 35° C. for 18 hours and the MIC was read as the lowest concentration of drug that inhibited visible growth of the organism. The growth of a single colony was considered to be negative.
In general terms: In agar dilution the substance is mixed into plates at graded concentrations.

In assay [2] the test system is Enterococcus faecalis UC ® No. 9217. The experiment in a line: In vitro antimicrobial activity (MIC, agar dilution, Mueller Hinton agar), E. faecalis UC 9217. The following applies: UC9217, 35° C., 18 hours, read-out: Minimum inhibitory concentration (MIC), E. f. 9217. The class given is cell-based. The method, then: as §1
Assay [3] has as its system Staphylococcus aureus UC ® No. 9213. The experiment in a line: In vitro antimicrobial activity (MIC, agar dilution, Mueller Hinton agar), S. aureus UC 9213. The class given is cell-based. The following applies: UC9213, 35° C., 18 hours, read-out: Minimum inhibitory concentration (MIC), S. a. 9213. The method, then:
as §1

The subject of the next assay is S, aureus UC ® No. 9213. The following applies: Antimicrob. Agents Chemother. 1996 and ICAAC 1995 posters; cited from earlier work.

Turning to `COc1ccc(-c2ccc(C3=NOC(CNC(C)=O)C3)cc2)ccc1=O` (racemic) [Example 1, N-[[4,5-Dihydro-3-[4-(4-methoxy-5-oxo-1,3,6-cycloheptatrien-1-yl)phenyl]-5-isoxazolyl]methyl]acetamide], the MIC in assay [1] is 1 µg/mL (≈ 2.84 µM); in assay [2] it was 4 µg/mL (≈ 11.4 µM); in assay [3], 4 µg/mL (≈ 11.4 µM).

With `CC(=O)NCC1CC(c2ccc(C3=CCN(C(=O)CO)CC3)cc2)=NO1` (stereo not shown) [Example 4, N-[[4,5-Dihydro-3-[4-[1,2,3,6-tetrahydro-1-(hydroxyacetyl)-4-pyridinyl]phenyl]-5-isoxazolyl]methyl]acetamide], the MIC in assay [1] came out at 2 µg/mL (≈ 5.6 µM); in assay [2], 8 µg/mL (≈ 22.4 µM); in assay [3], 4 µg/mL (≈ 11.2 µM).

In the case of `CC(=O)NC[C@H]1CC(c2ccc(C3=CCN(C(=O)CO)CC3)cc2)=NO1` [Example 5, (R)-N-[[4,5-Dihydro-3-[4-[1,2,3,6-tetrahydro-1-(hydroxyacetyl)-4-pyridinyl]phenyl]-5-isoxazolyl]methyl]acetamide], the figures for the MIC in assay [1], in assay [2] and in assay [3] were 0.5 µg/mL (≈ 1.4 µM), 4 µg/mL (≈ 11.2 µM) and 2 µg/mL (≈ 5.6 µM), respectively.

In the case of `COC(=O)N1CC=C(c2ccc(C3=NOC(CNC(C)=O)C3)cc2)CC1` (stereo not shown) [Example 6, Methyl 4-[4-[5-[(acetylamino)methyl]-4,5-dihydro-3-isoxazolyl]phenyl]-3,6-dihydro-1(2H)-pyridinecarboxylate], the results for the MIC in assay [1], in assay [2] and in assay [3] were 4 µg/mL (≈ 11.2 µM), 16 µg/mL (≈ 44.8 µM) and 16 µg/mL (≈ 44.8 µM), respectively.

In the case of `CC(=O)NCC1CC(c2ccc(C3=CCN(C(C)=O)CC3)cc2)=NO1` (stereo not shown) [Example 7, N-[[4,5-Dihydro-3-[4-[1,2,3,6-tetrahydro-1-(acetyl)-4-pyridinyl]phenyl]-5-isoxazolyl]methyl]acetamide], the figures for the MIC in assay [1], in assay [2] and in assay [3] were 2 µg/mL (≈ 5.86 µM), 16 µg/mL (≈ 46.9 µM) and 8 µg/mL (≈ 23.4 µM), respectively.

Turning to `CC(=O)NC[C@H]1CC(c2ccc(-c3ccncc3)cc2)=NO1` [Example 8, (R)-N-[[4,5-Dihydro-3-[4-(4-pyridinyl)phenyl]-5-isoxazolyl]methyl]acetamide], the figures for the MIC in assay [1], in assay [2] and in assay [3] were 0.25 µg/mL (≈ 0.846 µM), 2 µg/mL (≈ 6.77 µM) and 1 µg/mL (≈ 3.39 µM), respectively.

Consider `CC(=O)NC[C@H]1CN(c2ccc(N3CCN(C(=O)CO)CC3)c(F)c2)C(=O)O1` [Example U-100592], for which the “potency of U-100592 versus vancomycin in this animal model” value with S, aureus UC ® No. 9213 is “equipotent to vancomycin”.
